How the values were obtained:
[1] = system: AMPA, NMDA and kainate receptors, dorsal horn laminae I-III; test: Immunohistochemistry and densitometry of dorsal horn glutamate receptor expression after epidural glutamate infusion; type: in vivo, rat
Description: Immunohistochemical studies show expression of dorsal horn glutamate receptors in painful conditions involving the lower extremity in the rat. A relatively high concentration (2 mmol/L) of glutamate was infused for 72 hours (same infusion time period as in previous experiments) and densitometry was performed at 40× AMPA, NMDA and kainate for receptor expression at dorsal horn laminae I-III bilaterally, at spinal cord levels where the dorsal root ganglion input would enter the spinal cord dorsal horn, to determine whether receptor expression was increased. The microscopist was blinded to the nature of the sample.

[2] = system: rat hind paw withdrawal (nociception); test: Von Frey fiber behavioral test after epidural glutamate infusion; type: in vivo; conditions: epidural infusion 2.0-0.0002 mM for 72 hours; most prominent on day 3, also day 1
Description: Behavioral experiments have been completed at a wider range of concentrations. Rats are infused with epludial glutamate at concentrations of 2.0, 0.2, 0.02, 0.002 and 0.0002 mM for 72 hours (3 days). Von Frey fiber examinations were performed on left and right hind paws 24 hours before infusion and then 24, 72, and 144 hours after onset of glutamate infusion. The experimenter was blinded as to which infusate was used. Contralateral to ipsilateral differences were analyzed with respect to concentration of glutamate infusion and hours post-procedure. […] The response was most significant at the 0.02 mM concentration but present at 0.002 and 0.2 mM concentrations. […]
Behavioral Tests—The von Frey Fiber mechanical allodynia assay is performed 24 hours preoperatively and 24, 72, and 144 hours postoperatively. […] Starting with 0.6 grams of force and working up to 1, 1.4, 2, 4, 6, 8, 10, 15, and finally 26, each paw's response is recorded. […]
The protocol has the experimenter tap the bottom surface of the paw with one fiber at a time for six seconds each. […] If a response is not recognized, then the next fiber (one that elicited 1.0 grams of force) is applied, and so on in increasing order of force until a paw withdrawal response was recorded. After the initial response is recorded, the experimenter completes the testing procedure by testing the same paw with fibers in descending order of force. […]

[3] = 2 mmol/L glutamate, 72 hours, p<0.01

N[C@@H](CCC(=O)O)C(=O)O [glutamate]
AMPA, NMDA and kainate receptor expression versus saline-infused controls ([1]; 2 mmol/L glutamate infused for 72 hours, dorsal horn laminae I-III, two-tailed T test): upregulation of expression over saline-infused controls
AMPA receptor expression ipsilateral versus contralateral [1, 3]: upregulation of receptor expression ipsilateral to the side of infusion
NMDA receptor expression ipsilateral versus contralateral [1, 3]: upregulation of receptor expression ipsilateral to the side of infusion
kainate receptor expression ipsilateral versus contralateral ([1]; 2 mmol/L glutamate, 72 hours, p<0.05): upregulation of receptor expression ipsilateral to the side of infusion
von Frey contralateral to ipsilateral difference (hypersensitivity) [2]: significant hypersensitivity postoperatively
